In patent publication US20110306606A1, “NOVEL 2,6-SUBSTITUTED-3-NITROPYRIDINE DERIVATIVE, METHOD FOR PREPARING SAME, AND PHARMACEUTICAL COMPOSITION INCLUDING SAME” (priority 2008, published 2011):
Like-named read-outs stand apart in the source and are kept apart here.

Tests used:
[1] = test system: Osteoblasts (Calvarial cells); experiment: Alkaline phosphatase (ALP) activity in osteoblasts (Calvarial cells); assay type: cell-based, mice; details: 1 μM compound, 3 days
Description: Differentiation and activity of osteoblasts were indirectly evaluated by measuring an ALP activity having a close relationship with osteogenesis.
Osteoblasts (Calvarial cells) prepared in Experimental Example 1 and MC3T3-E1 cells (available from RIKEN Cell Bank, Japan) were collected in α-MEM supplemented with 10% FBS, followed by cell counting. The cells were dispensed into 24-well cultureware at a density of 2×10^4 cells/well. After culturing of the cells for 24 hours, the culture media were discarded and replaced with fresh media in which test compounds were diluted to a concentration of 1 μM (1 mL/well). In addition, the vehicle control group containing 0.1% DMSO was also treated. […] When the experiment was terminated, the supernatant was removed and the cells were washed three times with cold phosphate buffer at 4°. 0.2% Triton X-100 was added to the washed cells which were then subjected to three cycles of freezing at −70° and thawing at room temperature for the complete lysis of cells. The cell extracts were pooled and centrifuged to collect the cell supernatant which was used for the measurement of ALP activity and proteins. The protein concentration was measured using a BCA assay kit (manufactured by Sigma-Aldrich). For the measurement of ALP activity, p-nitrophenylphosphate was added to the cell supernatant which was then incubated at 37° for 30 minutes, and the reaction was terminated with the addition of 50 μL of 0.2N sodium hydroxide. The standard curve was plotted at the absorbance of 405 nm using p-nitrophenol as a standard material and then the absorbance of test materials thus reacted was measured to determine the production amount of p-nitrophenol.
The ALP activity was calculated by dividing the amount of p-nitrophenol produced from each test material by the protein amount and the reaction time. Therefore, the unit of ALP activity was given in terms of p-nitrophenol/μg protein/min. The results are given in Tables 28-1 and 28-2 where the ALP activity unit of each test material was given in terms of % change through the comparison between the individual test materials and the vehicle control group.

[2] = test system: Osteoblasts (Calvarial cells); experiment: Cytotoxicity test (MTT); details: 1 μM compound, 72 hours, in comparison with vehicle control
Description: (§1) For the preparation of osteoblasts (Calvarial cells), the calvaria were aseptically dissected from 1 to 2-day-old neonatal ICR mice and subjected to continuous reaction with a 0.2% collagenase solution to separate osteoblasts. The cell-suspended supernatant was centrifuged to recover osteoblasts which were grown to full confluence in an α-MEM supplemented with 10% FBS and then diluted to a desired cell density for use in the experiment.
(§2) Cytotoxicity of the compounds of the present invention was evaluated by carrying out the experiment described below.
(§3) The vehicle control group was established to contain 0.2% DMSO. 100 μL/well of the diluted drugs were dispensed into 96-well plates to which osteoblasts (calvarial cells) prepared in Experimental Example 1 were then added at a density of 1.0×10^4 cells/100 μL/well. Here, the final compound concentration in the cell culture was 1 μM, and the vehicle control group contained 0.1% DMSO. The cells were cultured in a 5% CO2 inhibitor at 37° for 72 hours. 25 μL of 3-(4,5-dimethyl-2-thiazolyl)-2,5-diphenyl-2H-tetrazolium bromide (MTT) dissolved in PBS (2 mg/mL) was added to each cell culture 4 hours before the end of culture. After completion of the reaction, the plates were centrifuged, the media were discarded, and 100 μL of formazan was added and dissolved in dimethyl sulfoxide (DMSO). Finally, the absorbance of the developed plates was measured at 540 nm. The cell viability was expressed as % concentration in comparison with the vehicle control group.

[3] = test system: Osteoblasts (Calvarial cells); details: ICR, mouse, 72 h, 1 μM
Description: as §1, §2, §3

Compound | ALP activity (1 μM, % of Control) Calvarial cell [1] | Cell viability (%) Calvarial cell [2] [%] | Cell viability (%) Calvarial cell [3] [%]
CC(C)Nc1ccc([N+](=O)[O-])c(Nc2ccc(N3CCOCC3)c(F)c2)n1 [Compound 192, 2-[(3-fluoro-4-morpholino)phenylamino]-6-(isopropylamino)-3-nitropyridine] | 113 % of Control | 99 | –
NC1CCN(c2ccc(Nc3nc(N4CCNCC4)ccc3[N+](=O)[O-])cc2F)CC1 [Compound 253, 2-{[3-fluoro-4-(4-aminopiperidino)]phenylamino}-6-(piperazin-1-yl)-3-nitropyridine] | 115 % of Control | 104 | –
CC1=NCCN1c1ccc([N+](=O)[O-])c(Nc2ccc(C(C)(C)C)cc2)n1 [Compound 35, 2-[4-(t-butyl)phenylamino]-6-[(2-methyl-4,5-dihydro)imidazol-1-yl]-3-nitropyridine] | 132 % of Control | 96 | –
O=[N+]([O-])c1ccc(N2CCC(O)CC2)nc1Nc1ccc(N2CCC(O)CC2)c(F)c1 [Compound 239, 2-{[3-fluoro-4-(4-hydroxypiperidino)]phenylamino}-6-(4-hydroxypiperidino)-3-nitropyridine] | 130 % of Control | 98 | –
CC(C)CNc1ccc([N+](=O)[O-])c(Nc2ccc(N3CCSCC3)c(F)c2)n1 [Compound 205, 2-[(3-fluoro-4-thiomorpholino)phenylamino]-6-(isobutylamino)-3-nitropyridine] | 132 % of Control | 109 | –
CNc1ccc([N+](=O)[O-])c(Nc2ccc(N3CCOCC3)c(F)c2)n1 [Compound 191, 2-[(3-fluoro-4-morpholino)phenylamino]-6-(methylamino)-3-nitropyridine] | 156 % of Control | 97 | –
CC(C)Nc1ccc([N+](=O)[O-])c(Nc2ccc(N3CCCCC3)c(F)c2)n1 [Compound 224, 2-[(3-fluoro-4-piperidino)phenylamino]-6-(isopropylamino)-3-nitropyridine] | 125 % of Control | 101 | –
NC1CCN(c2ccc(Nc3nc(NCc4ccncc4)ccc3[N+](=O)[O-])cc2F)CC1 [Compound 258, 2-{[3-fluoro-4-(4-aminopiperidino)]phenylamino}-6-[(4-pyridyl)methylamino]-3-nitropyridine] | 115 % of Control | 101 | –
CCN(CCO)c1ccc([N+](=O)[O-])c(Nc2ccc(N3CCOCC3)cc2)n1 [Compound 118, 2-(4-morpholinophenylamino)-6-[(N-ethyl-2-hydroxy)ethylamino]-3-nitropyridine] | 111 % of Control | 102 | –
NC1CCN(c2ccc(Nc3nc(NCc4cccnc4)ccc3[N+](=O)[O-])cc2F)CC1 [Compound 257, 2-{[3-fluoro-4-(4-aminopiperidino)]phenylamino}-6-[(3-pyridyl)methylamino]-3-nitropyridine] | 122 % of Control | 101 | –
O=[N+]([O-])c1ccc(N2CCC(O)CC2)nc1Nc1ccc(N2CCSCC2)c(F)c1 [Compound 206, 2-[(3-fluoro-4-thiomorpholino)phenylamino]-6-(4-hydroxypiperidino)-3-nitropyridine] | 124 % of Control | 102 | –
CC(C)Nc1ccc([N+](=O)[O-])c(Nc2ccc(N3CCC(O)CC3)c(F)c2)n1 [Compound 237, 2-{[3-fluoro-4-(4-hydroxypiperidino)]phenylamino}-6-(isopropylamino)-3-nitropyridine] | 117 % of Control | 99 | –
COc1ccc(Nc2nc(NCC(C)C)ccc2[N+](=O)[O-])cc1 [Compound 17, 2-(4-methoxyphenylamino)-6-(isobutylamino)-3-nitropyridine] | – | – | 96
O=[N+]([O-])c1ccc(N2CCC(O)CC2)nc1Nc1ccc(-c2csc(C3CCCCC3)n2)cc1 [Compound 155, 2-[4-(2-cyclohexylthiazol-4-yl)phenylamino]-6-(4-hydroxypiperidino)-3-nitropyridine] | – | – | 105
O=[N+]([O-])c1ccc(N2CCNCC2)nc1Nc1ccc(-c2csc(C3CCCCC3)n2)cc1 [Compound 158, 2-[4-(2-cyclohexylthiazol-4-yl)phenylamino]-6-(piperazin-1-yl)-3-nitropyridine] | – | – | 88
Cc1ccc(Nc2nc(NCC(C)C)ccc2[N+](=O)[O-])cc1 [Compound 3, 2-(4-methylphenylamino)-6-(isobutylamino)-3-nitropyridine] | – | – | 102
O=[N+]([O-])c1ccc(NCc2ccncc2)nc1Nc1ccc(F)c(F)c1 [Compound 131, 2-[(3,4-difluoro)phenylamino]-6-[(4-pyridyl)methylamino]-3-nitropyridine] | – | – | 100
Nc1ccc(Nc2nc(NCCCn3ccnc3)ccc2[N+](=O)[O-])cc1 [Compound 67, 2-[4-(amino)phenylamino]-6-[(3-imidazol-1-yl)propylamino]-3-nitropyridine] | – | – | 111
CC(C)(C)c1ccc(Nc2nc(N3CCOCC3)ccc2[N+](=O)[O-])cc1 [Compound 44, 2-[4-(t-butyl)phenylamino]-6-morpholino-3-nitropyridine] | – | – | 101
CN1CCN(c2ccc([N+](=O)[O-])c(Nc3ccc(N)cc3)n2)CC1 [Compound 63, 2-[4-(amino)phenylamino]-6-(4-methylpiperazin-1-yl)-3-nitropyridine] | – | – | 104
COc1ccc(Nc2nc(NC(C)(C)C)ccc2[N+](=O)[O-])cc1 [Compound 23, 2-(4-methoxyphenylamino)-6-(t-butylamino)-3-nitropyridine] | – | – | 90
Nc1cccc(Nc2nc(N3CCC(O)CC3)ccc2[N+](=O)[O-])c1 [Compound 74, 2-[3-(amino)phenylamino]-6-(4-hydroxypiperidino)-3-nitropyridine] | – | – | 93
NC1CCN(c2ccc([N+](=O)[O-])c(Nc3ccc(F)c(F)c3)n2)CC1 [Compound 130, 2-[(3,4-difluoro)phenylamino]-6-(4-aminopiperidino)-3-nitropyridine] | – | – | 101
COc1ccc(Nc2nc(N3CCC(O)CC3)ccc2[N+](=O)[O-])cc1 [Compound 19, 2-(4-methoxyphenylamino)-6-(4-hydroxypiperidino)-3-nitropyridine] | – | – | 94
